{
  "source": "paper PMC4129416",
  "about": "“YLT192, a Novel, Orally Active Bioavailable Inhibitor of VEGFR2 Signaling with Potent Antiangiogenic Activity and Antitumor Efficacy in Preclinical Models” (Scientific Reports, 2014)",
  "key": {"[1]": {"target": "T1, GSK3β (Homo sapiens, UniProt P49841)", "T1 construct": "purchased Millipore (Kinase Profile Service, UK)", "T1 sequence (P49841 whole entry)": "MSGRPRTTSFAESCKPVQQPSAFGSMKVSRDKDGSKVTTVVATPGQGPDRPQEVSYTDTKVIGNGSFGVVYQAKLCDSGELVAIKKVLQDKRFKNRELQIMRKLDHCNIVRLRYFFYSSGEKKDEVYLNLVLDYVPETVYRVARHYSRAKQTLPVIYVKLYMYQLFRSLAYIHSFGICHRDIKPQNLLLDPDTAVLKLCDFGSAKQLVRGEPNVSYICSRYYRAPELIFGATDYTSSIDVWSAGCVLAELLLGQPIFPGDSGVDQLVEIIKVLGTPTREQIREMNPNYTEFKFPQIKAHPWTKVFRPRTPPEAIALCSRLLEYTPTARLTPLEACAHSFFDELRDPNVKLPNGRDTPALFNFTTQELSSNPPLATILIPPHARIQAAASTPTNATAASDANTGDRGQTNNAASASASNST", "experiment": "Radiometric kinase assay (Millipore Kinase Profile Service)", "type": "biochemical", "settings": "means ± SD, two independent experiments, read-out: inhibition rate at 1 μM (%)", "experimental": "(§1) YLT192 was designed and synthesized in the State Key Laboratory of Biotherapy, Sichuan University (Sichuan, China). Its structural formula and synthesis route was shown in Fig. 1A and Supplementary Figure S1, respectively. The kinase inhibitory activity of YLT192 was measured by the use of radiometric assays provided by Kinase Profile Service (Millipore, UK). The effects of YLT192 on kinase activity were detected using the scintillation proximity assay method at an enzymatic level. […] In addition, the inhibitory activity of YLT192 was examined against platelet-derived growth factor receptor (PDGFR)-related kinases because of their structural similarity to the VEGFR2. […] Moreover, excellent selectivity for VEGFR2 was evident compared with a range of unrelated tyrosine and serine/threonine kinases, including fibroblast growth factor receptor 3, polo-like kinase 1, aurora-A, Axl, MET, protein kinase A, c-RAF etc."}, "[2]": {"target": "T2, Plk1 (Homo sapiens, UniProt P53350)", "T2 construct": "purchased Millipore (Kinase Profile Service, UK)", "T2 sequence (P53350 whole entry)": "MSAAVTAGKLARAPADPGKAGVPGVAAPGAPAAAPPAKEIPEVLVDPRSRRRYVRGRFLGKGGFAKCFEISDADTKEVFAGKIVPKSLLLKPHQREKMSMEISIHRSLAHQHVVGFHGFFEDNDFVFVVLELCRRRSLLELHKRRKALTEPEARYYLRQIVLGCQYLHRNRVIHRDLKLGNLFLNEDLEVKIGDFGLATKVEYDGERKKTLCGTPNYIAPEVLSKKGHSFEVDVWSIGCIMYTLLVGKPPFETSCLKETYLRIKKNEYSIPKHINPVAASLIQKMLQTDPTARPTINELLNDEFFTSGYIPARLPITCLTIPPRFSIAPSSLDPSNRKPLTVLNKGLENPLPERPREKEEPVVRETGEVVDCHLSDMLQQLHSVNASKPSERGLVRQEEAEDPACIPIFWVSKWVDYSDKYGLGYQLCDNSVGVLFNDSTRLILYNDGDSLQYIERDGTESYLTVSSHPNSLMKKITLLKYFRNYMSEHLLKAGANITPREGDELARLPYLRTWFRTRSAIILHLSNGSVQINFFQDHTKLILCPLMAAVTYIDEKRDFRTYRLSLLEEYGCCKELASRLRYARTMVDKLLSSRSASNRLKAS", "experiment": "Radiometric kinase assay (Millipore Kinase Profile Service)", "type": "biochemical", "settings": "means ± SD, two independent experiments, read-out: inhibition rate at 1 μM (%)", "experimental": "as §1"}, "[3]": {"target": "T3, cKit (Homo sapiens, UniProt P10721)", "T3 construct": "purchased Millipore (Kinase Profile Service, UK)", "T3 sequence (P10721 26-976)": "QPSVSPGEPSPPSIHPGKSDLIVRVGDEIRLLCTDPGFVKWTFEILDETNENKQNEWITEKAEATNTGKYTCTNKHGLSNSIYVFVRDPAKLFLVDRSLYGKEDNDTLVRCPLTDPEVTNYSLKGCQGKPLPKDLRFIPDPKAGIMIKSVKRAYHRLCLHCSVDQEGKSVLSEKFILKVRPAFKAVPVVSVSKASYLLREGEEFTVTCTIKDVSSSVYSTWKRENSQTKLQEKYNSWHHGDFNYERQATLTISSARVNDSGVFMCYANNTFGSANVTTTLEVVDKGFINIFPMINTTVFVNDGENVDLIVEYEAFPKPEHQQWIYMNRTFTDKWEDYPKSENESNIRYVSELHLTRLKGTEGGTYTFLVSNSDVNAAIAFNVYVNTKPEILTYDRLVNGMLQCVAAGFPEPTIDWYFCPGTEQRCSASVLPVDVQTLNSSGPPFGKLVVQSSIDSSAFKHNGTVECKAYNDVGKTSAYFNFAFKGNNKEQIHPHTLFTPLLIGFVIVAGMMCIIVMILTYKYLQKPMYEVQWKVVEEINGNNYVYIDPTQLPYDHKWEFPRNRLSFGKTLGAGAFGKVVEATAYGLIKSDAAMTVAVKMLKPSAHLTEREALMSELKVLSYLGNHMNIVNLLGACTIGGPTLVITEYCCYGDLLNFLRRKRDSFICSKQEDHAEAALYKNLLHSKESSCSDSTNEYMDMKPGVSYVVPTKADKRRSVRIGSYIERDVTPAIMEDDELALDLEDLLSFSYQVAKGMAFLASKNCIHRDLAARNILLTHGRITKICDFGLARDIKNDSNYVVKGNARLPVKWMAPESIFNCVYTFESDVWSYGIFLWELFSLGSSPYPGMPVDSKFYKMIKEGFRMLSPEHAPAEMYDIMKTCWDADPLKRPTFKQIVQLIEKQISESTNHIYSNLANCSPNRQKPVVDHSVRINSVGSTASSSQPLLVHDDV", "experiment": "Radiometric kinase assay (Millipore Kinase Profile Service)", "type": "biochemical", "settings": "means ± SD, two independent experiments, read-out: inhibition rate at 1 μM (%)", "experimental": "as §1"}, "[4]": {"tested_on": "zebrafish intersegmental vessels", "experiment": "Transgenic zebrafish (FLK-1: EGFP) embryonic angiogenesis model", "type": "in vivo", "settings": "5 μM; zebrafish embryos treated 15 hpf, imaged 30 hpf", "text": "To test the anti-angiogenesis effects of YLT192 in vivo, we used a FLK-1 promoter enhanced green fluorescent protein (EGFP) transgenic zebrafish model.\nFigure 3 YLT192 inhibited angiogenesis in vivo. (A) Fluorescent images of 30 hpf zebrafish treated with vehicle or concentrations of YLT192. ISV growth was inhibited by YLT192. One representative experiment of three is shown. Data are means ± SEM (n = 10 per group), *P < 0.05, **P < 0.01. Scale bars represent 100 μm. […] Frozen sections of HCT116 tumors were tested by immunohistochemistry analysis with anti-CD31 antibody. Representative images of the tumor vasculature from vehicle and YLT192 treated mice were shown. The fields were averaged in each tumor, and the averages for each animal were used to give the final mean ± SD (n = 6 mice per group). *P < 0.05, **P < 0.01. Scale bars represent 100 μm. […] Alginate beads containing 5 × 10^4 CT26 cells were implanted s.c. into the backs of mice. Mice were then orally treated with YLT192 or vehicle once daily. Beads were surgically removed 14 days later and FITC-dextran was quantified. […] Data are means ± SD (n = 6 mice per group), *P < 0.05, **P < 0.01. Scale bars represent 500 μm.\nThe transgenic zebrafish (FLK-1: EGFP) was used in the experiments. The embryos were grown and maintained as described previously. […]"}, "[5]": {"tested_on": "HCT116 tumor xenografts", "experiment": "Immunohistochemistry of HCT116 xenograft tumor sections (CD31, Ki67, p-p44/42 MAPK, TUNEL)", "type": "in vivo, mice", "experimental": "To better understand the mechanism of antitumor activities in vivo, immunohistochemistry was performed using tumor tissues isolated from HCT116 at the end of the treatment. […] Furthermore, we investigated the activity of YLT192 on apoptosis in HCT116 xenograft tumors by terminal deoxynucleotidyl transferase (dUTP) nick end labeling (TUNEL) staining.\nTumour tissues obtained from the mice bearing HCT116 tumors were subjected to immunohistological analysis. Briefly, at the end of the treatment, mice were killed and tumor tissues were obtained. Then CD31 staining was conducted using frozen sections of tissue embedded in optimum cutting temperature[49] and immunohistological detection of anti-Ki67 and p-p44/42 MAPK were performed according to the manufacture's instructions using paraffin-embedded sections of tumor[50]. Apoptotic cells in the tumor tissue were detected by terminal deoxynucleotidyl transferase-mediated dUTP nick end-labeling (TUNEL) staining using an apoptotic cell detection kit (Merck Millipore)."}, "[6]": {"tested_on": "tumor cells", "experiment": "Cancer cell viability assays, whole panel", "type": "cell-based"}, "[7]": {"tested_on": "HCT116 cells", "experiment": "Annexin V/propidium iodide apoptosis assay, flow cytometry", "type": "cell-based, human", "settings": "48 hours; annexin V-FITC and PI staining; concentration-dependent", "experimental": "Figure 4 Inhibitory effects of YLT192 on tumor cells. (A) YLT192 inhibited U251 and HCT116 cells proliferation. The EdU incorporation assay was conducted on U251 and HCT116 cells after treated with YLT192 for 24 hours. The EdU-positive (red fluorescent staining) cells and Hoechst staining (blue fluorescent staining) cells represented proliferating and total cells in the fluorescent images, respectively (100×). Quantification was shown on the right panels. (B) YLT192 induced apoptosis of HCT116 cells. HCT116 cells were treated with YLT192 or vehicle for 48 hours followed by flow cytometric analysis of annexin V-FITC and PI staining. The proportion of early apoptotic cells (annexin V positive) and late apoptotic cells (annexin V and PI positive cells) were shown. Typical apoptosis-related proteins caspase 3 and Bax were detected by western blot. Each has the expression of β-actin as internal control. The full size blots were shown in the Supplemental Figure S6 online. For (A) and (B), one representative experiment of three is shown. Data are means ± SEM, *P < 0.05, **P < 0.01. (C) YLT192 inhibited oncogenic signaling pathways in tumor cells in vitro. U251 and HCT116 cells were treated with YLT192 or vehicle for 48 hours and the expression of protein in different signaling pathways were detected by western blot with specific antibodies. Blots are representative of three experiments. […]"}},
  "note": "“Also recorded” adds a separate entry of the source. Where two headings read alike, the source gives them in different places.",
  "data": [
    {"smiles": "CNC(=O)c1cc(Oc2ccc(NC(=O)c3cccc(OC)c3)cc2)ccn1", "note": "[YLT192]", "values": [
      {"measurement": "inhibition at 1 µM", "setting": "[1]", "value": "4 ± 6", "unit": "%"},
      {"measurement": "inhibition at 1 µM", "setting": "[2]", "value": "1 ± 3", "unit": "%"},
      {"measurement": "inhibition at 1 µM", "setting": "[3]", "value": "6 ± 3", "unit": "%"},
      {"measurement": "formation of intersegmental vessels", "setting": "[4]", "value": "considerably blocked; also recorded: significantly inhibited"},
      {"measurement": "apoptotic cells in the tumor tissues, TUNEL staining", "setting": "[5]; 100 mg/kg", "value": "increased apoptotic cells"},
      {"measurement": "phosphorylation of p44/42 MAPK (p-ERK) in tumor tissues", "setting": "[5]; 100 mg/kg", "value": "significant decrease"},
      {"measurement": "reduction of microvessel density (MVD)", "setting": "[5]; 100 mg/kg oral daily, anti-CD31, vs vehicle", "value": 69, "unit": "%"},
      {"measurement": "Ki67 staining in tumor tissues", "setting": "[5]; 50 and 100 mg/kg, end of treatment", "value": "significant reduction"},
      {"measurement": "IC50", "setting": "[6]; range for most tumor cell lines of the panel, read-out: Most IC50 against the tumor cells", "value": "6 to 20", "unit": "µM"},
      {"measurement": "IC50", "setting": "[6]; range over the cancer cell panel, read-out: IC50 values in cancer cell viability assays", "value": "6 to 30", "unit": "µM"},
      {"measurement": "apoptosis in HCT116 cells", "setting": "[7]", "value": "increased apoptosis"}
    ]}
  ]
}
